Test results from PubChem BioAssay AID1963958 (Molecular Pharmacology Branch, DTP, NCI, 2024).
Values belong to the molecule of their own block, whether it stands above or below them.

System: MDA-MB-231 multicell spheroids, viability
Assay: Anticancer human tumor MDA-MB-231 cell line growth inhibition [PI3K];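 also: spheroids exposed to agents for seven days before reading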;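 as to viability, T/C: percent of vehicle control luminescence with DMSO treated spheroids as 100%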
Details: for viability, T/C: stronger effect = lower value
Procedure, shortened: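 Spheroid viability read-out. Co-cultures contained the tumor line plus HUVEC and human MSCs. Each agent was paired with a PI3K inhibitor (inavolisib, alpelisib, duvelisib, copanlisib) across half-log dilutions starting at clinical Cmax, or at 10 microM when Cmax was unknown.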

[1] = curve of first compound, second compound 0.0316 µM
[2] = curve of first compound, second compound 0.1 µM
[3] = curve of first compound, second compound 0.316 µM
[4] = curve of first compound, second compound 1 µM
[5] = second compound 0.0316 µM, first compound 0.0316 µM
[6] = second compound 0.0316 µM, first compound 0.1 µM
[7] = second compound 0.0316 µM, first compound 0.316 µM
[8] = second compound 0.0316 µM, first compound 1 µM
[9] = second compound 0.0316 µM, first compound 3.16 µM
[10] = second compound 0.0316 µM, first compound 10 µM
[11] = second compound 0.1 µM, first compound 0.0316 µM
[12] = second compound 0.1 µM, first compound 0.1 µM
[13] = second compound 0.1 µM, first compound 0.316 µM
[14] = second compound 0.1 µM, first compound 1 µM
[15] = second compound 0.1 µM, first compound 3.16 µM
[16] = second compound 0.1 µM, first compound 10 µM
[17] = second compound 0.316 µM, first compound 0.0316 µM
[18] = second compound 0.316 µM, first compound 0.1 µM
[19] = second compound 0.316 µM, first compound 0.316 µM
[20] = second compound 0.316 µM, first compound 1 µM
[21] = second compound 0.316 µM, first compound 3.16 µM
[22] = second compound 0.316 µM, first compound 10 µM
[23] = second compound 1 µM, first compound 0.0316 µM
[24] = second compound 1 µM, first compound 0.1 µM
[25] = second compound 1 µM, first compound 0.316 µM
[26] = second compound 1 µM, first compound 1 µM
[27] = second compound 1 µM, first compound 3.16 µM
[28] = second compound 1 µM, first compound 10 µM
[29] = curve of first compound, second compound 3.16 µM
[30] = curve of first compound, second compound 10 µM
[31] = second compound 3.16 µM, first compound 0.0316 µM
[32] = second compound 3.16 µM, first compound 0.1 µM
[33] = second compound 3.16 µM, first compound 0.316 µM
[34] = second compound 3.16 µM, first compound 1 µM
[35] = second compound 10 µM, first compound 0.0316 µM
[36] = second compound 10 µM, first compound 0.1 µM
[37] = second compound 10 µM, first compound 0.316 µM
[38] = second compound 10 µM, first compound 1 µM

IC50 (curve of first compound, second compound 0.00316 µM): 1080 nM
IC50 (curve of first compound, second compound 0.01 µM): 618 nM
IC50 [1]: 270 nM
IC50 [2]: 88.8 nM
IC50 [3]: 66.9 nM
IC50 [4]: < 31.6 nM
Compound: Cn1nccc1Nc1nccc(-c2ccn(C(CO)c3ccc(Cl)c(F)c3)c(=O)c2)n1 (configuration not stated) + CC(Nc1ccc2c(c1)OCCn1cc(N3C(=O)OCC3C(F)F)nc1-2)C(N)=O
viability, T/C (second compound 0.00316 µM, first compound 0.0316 µM): 64.6%
viability, T/C (second compound 0.00316 µM, first compound 0.1 µM): 68.1%
viability, T/C (second compound 0.00316 µM, first compound 0.316 µM): 56.8%
viability, T/C (second compound 0.00316 µM, first compound 1 µM): 50.9%
viability, T/C (second compound 0.00316 µM, first compound 3.16 µM): 39.6%
viability, T/C (second compound 0.00316 µM, first compound 10 µM): 26.9%
viability, T/C (second compound 0.01 µM, first compound 0.0316 µM): 71.6%
viability, T/C (second compound 0.01 µM, first compound 0.1 µM): 64.4%
viability, T/C (second compound 0.01 µM, first compound 0.316 µM): 52%
viability, T/C (second compound 0.01 µM, first compound 1 µM): 46.9%
viability, T/C (second compound 0.01 µM, first compound 3.16 µM): 39.6%
viability, T/C (second compound 0.01 µM, first compound 10 µM): 23%
viability, T/C [5]: 69.2%
viability, T/C [6]: 56.4%
viability, T/C [7]: 47.3%
viability, T/C [8]: 42.2%
viability, T/C [9]: 29.4%
viability, T/C [10]: 20.4%
viability, T/C [11]: 56.4%
viability, T/C [12]: 46.6%
viability, T/C [13]: 43%
viability, T/C [14]: 40.2%
viability, T/C [15]: 25.5%
viability, T/C [16]: 20.8%
viability, T/C [17]: 53.4%
viability, T/C [18]: 48.5%
viability, T/C [19]: 42.1%
viability, T/C [20]: 33.4%
viability, T/C [21]: 26.3%
viability, T/C [22]: 19%
viability, T/C [23]: 51.2%
viability, T/C [24]: 42.3%
viability, T/C [25]: 38.5%
viability, T/C [26]: 36.1%
viability, T/C [27]: 26.6%
viability, T/C [28]: 16.2%

IC50 [1]: > 1000 nM
IC50 [2]: > 1000 nM
IC50 [3]: 988 nM
IC50 [4]: 85.4 nM
IC50 [29]: 20.1 nM
IC50 [30]: < 3.16 nM
Compound: CCN1CCN(Cc2ccc(Nc3ncc(F)c(-c4cc(F)c5nc(C)n(C(C)C)c5c4)n3)nc2)CC1 + CC(Nc1ncnc2nc[nH]c12)c1cc2cccc(Cl)c2c(=O)n1-c1ccccc1
viability, T/C (second compound 0.0316 µM, first compound 0.00316 µM): 96.7%
viability, T/C (second compound 0.0316 µM, first compound 0.01 µM): 93.2%
viability, T/C [5]: 81.4%
viability, T/C [6]: 58.9%
viability, T/C [7]: 57.1%
viability, T/C [8]: 56.8%
viability, T/C (second compound 0.1 µM, first compound 0.00316 µM): 98.2%
viability, T/C (second compound 0.1 µM, first compound 0.01 µM): 84.4%
viability, T/C [11]: 79%
viability, T/C [12]: 59.1%
viability, T/C [13]: 55%
viability, T/C [14]: 51.9%
viability, T/C (second compound 0.316 µM, first compound 0.00316 µM): 92.9%
viability, T/C (second compound 0.316 µM, first compound 0.01 µM): 80.7%
viability, T/C [17]: 71.2%
viability, T/C [18]: 56.8%
viability, T/C [19]: 47.4%
viability, T/C [20]: 53.5%
viability, T/C (second compound 1 µM, first compound 0.00316 µM): 78.4%
viability, T/C (second compound 1 µM, first compound 0.01 µM): 70.8%
viability, T/C [23]: 53.6%
viability, T/C [24]: 47.8%
viability, T/C [25]: 50.3%
viability, T/C [26]: 49.6%
viability, T/C (second compound 3.16 µM, first compound 0.00316 µM): 62.1%
viability, T/C (second compound 3.16 µM, first compound 0.01 µM): 54.5%
viability, T/C [31]: 49%
viability, T/C [32]: 36.8%
viability, T/C [33]: 40.5%
viability, T/C [34]: 46.7%
viability, T/C (second compound 10 µM, first compound 0.00316 µM): 46.5%
viability, T/C (second compound 10 µM, first compound 0.01 µM): 40.7%
viability, T/C [35]: 37.2%
viability, T/C [36]: 29.3%
viability, T/C [37]: 41.1%
viability, T/C [38]: 49.6%

IC50 [1]: > 10000 nM
IC50 [2]: > 10000 nM
IC50 [3]: > 10000 nM
IC50 [4]: > 10000 nM
IC50 [29]: > 10000 nM
IC50 [30]: 89.7 nM
Compound: CNC(=O)c1ccc(N2C(=S)N(c3ccc(C#N)c(C(F)(F)F)c3)C(=O)C2(C)C)cc1F + CC(Nc1ncnc2nc[nH]c12)c1cc2cccc(Cl)c2c(=O)n1-c1ccccc1
viability, T/C [5]: 101%
viability, T/C [6]: 110%
viability, T/C [7]: 102%
viability, T/C [8]: 94%
viability, T/C [9]: 97.5%
viability, T/C [10]: 70.3%
viability, T/C [11]: 93%
viability, T/C [12]: 96%
viability, T/C [13]: 105%
viability, T/C [14]: 101%
viability, T/C [15]: 95.7%
viability, T/C [16]: 79.9%
viability, T/C [17]: 89%
viability, T/C [18]: 96.8%
viability, T/C [19]: 91.1%
viability, T/C [20]: 99.2%
viability, T/C [21]: 85.5%
viability, T/C [22]: 72.9%
viability, T/C [23]: 81.2%
viability, T/C [24]: 84.1%
viability, T/C [25]: 75.4%
viability, T/C [26]: 77.2%
viability, T/C [27]: 76.3%
viability, T/C [28]: 64.1%
viability, T/C [31]: 61.4%
viability, T/C [32]: 59.5%
viability, T/C [33]: 63.1%
viability, T/C [34]: 61.4%
viability, T/C (second compound 3.16 µM, first compound 3.16 µM): 62.3%
viability, T/C (second compound 3.16 µM, first compound 10 µM): 51%
viability, T/C [35]: 49.5%
viability, T/C [36]: 51.6%
viability, T/C [37]: 47.3%
viability, T/C [38]: 49.4%
viability, T/C (second compound 10 µM, first compound 3.16 µM): 42.3%
viability, T/C (second compound 10 µM, first compound 10 µM): 39.7%

IC50 (curve of compound): > 10000 nM
Compound: C=CC(=O)N1CCN(c2nc(=O)n(-c3c(C)ccnc3C(C)C)c3nc(-c4c(O)cccc4F)c(F)cc23)C(C)C1 (configuration not stated)
viability, T/C (compound 0.0316 µM): 109% [middle of 4 runs]
viability, T/C (compound 0.1 µM): 101% [middle of 4 runs]
viability, T/C (compound 0.316 µM): 124% [middle of 4 runs]
viability, T/C (compound 3.16 µM): 136% [middle of 4 runs]
viability, T/C (compound 10 µM): 127% [middle of 4 runs]
